According to patent publication US10440955B2, “Methods comprising a biocidal polyamine” (Curza Global, LLC, priority 2013, dated 2019):
Values joined by “and” are separate entries in the source; they are usually repeats but may differ in a detail not shown here. Identical values can stand only once. Counter-ions that a name gives are not always drawn.

Tests used:
MRSA biofilms [1] = assay: MBEC, MBEC Inoculation Tray (Innovotech), to 10^2 CFU/peg in 24 hours; format: cell-based, Staphylococcus aureus
Description: (§1) To determine the MBEC of each polyamine compound, the MBEC Inoculation Tray by Innovotech, formerly known as the Calgary biofilm device, was used. Within this device, biofilms grow on the surface of polystyrene pegs, 96 of which are attached to a lid. These pegs are inserted into a flat bottom 96-well plate. In this instance, the MBEC of a molecule was defined as the concentration of compound (in μg/mL) required to reduce 10^5 or 10^6 CFU/peg (biofilm levels varied by isolate) to 10^2 CFU/peg in a 24-hour period.
(§2) Following the manufacturer's guidelines, biofilms were grown on the surface of each peg by first making a 0.5 McFarland of each isolate. The 0.5 McFarland was diluted 1:100 in CAMHB. Into each well of a flat bottom 96-well plate, 150 μL of broth were pipetted. The plate was shaken at 100 rpm for 24 hours (P. aeruginosa and A. baumannii) or 48 hours (MRSA). The pegs were then placed into a separate flat bottom 96-well plate for 10 seconds with 200 μL of phosphate buffered saline (PBS) in each well to remove nonadherent cells. The lid was then placed into a 96-well plate that contained varying concentrations of antimicrobial with 200 μL per well. The plate was incubated for 24 hours at 37° C. after which time 100 μL of broth were plated on TSA. TSA plates were incubated 24 hours at 37° C. and the number of CFU counted to calculate the CFU/peg. In this instance, the MBEC was defined as the concentration of antimicrobial required to reduce 10^5 or 10^6 CFU/peg to 10^2 CFU/peg in a 24 hour period.
MBEC data were collected using the MBEC Inoculation Tray by Innovotech. The MBEC was defined in these preliminary results as the concentration of antimicrobial required to reduce 10^5 or 10^6 CFU/peg to 10^2 CFU/peg in a 24-hour period.

A. baumannii biofilms [2] = assay: EBEC, high number biofilms on PEEK membranes, 10^9 to 10^2 CFU/PEEK membrane in 24 hours; format: cell-based, Acinetobacter baumannii; settings: Table 3B c4, group head missing
A. baumannii biofilms [3] = assay: MBEC, MBEC Inoculation Tray (Innovotech), to 10^2 CFU/peg in 24 hours; format: cell-based, Acinetobacter baumannii; settings: Table 3B c1, group head missing, probably MBEC
MRSA biofilms [4] = assay: as above; format: cell-based; settings: Staphylococcus aureus, read-out: MICs (μg/mL): MRSA
biofilm of MRSA = assay: Combination treatment: dispersal of a biofilm; format: cell-based, Staphylococcus aureus; settings: […] mixed with chlorhexidine gluconate at […]; biofilm of 10^11 cells; within one hour
P. aeruginosa biofilms [5] = assay: EBEC, high number biofilms on PEEK membranes, 10^9 to 10^2 CFU/PEEK membrane in 24 hours; format: cell-based; settings: Pseudomonas aeruginosa; Table 3B c3; group head missing; read-out: MICs (μg/mL) II: P. aeruginosa
Method: In addition to determining the MIC and the MBEC of polyamine compounds against planktonic bacteria and low number biofilms, our group wanted to determine the efficacy of polyamine compounds against high number biofilms. To do so, biofilms were grown on the surface of polyetheretherketone (PEEK) membranes using a membrane biofilm reactor. This reactor is similar to the CDC biofilm reactor, but rather than growing biofilms on coupon surfaces, the reactor was modified to hold PEEK membranes. In short, to grow biofilms within this system, 500 mL of brain heart infusion (BHI) broth were inoculated with 1 mL of a 0.5 McFarland. The reactor was placed on a hot plate set at 34° C. and the bacteria were grown under batch conditions for 24 hours. Following this protocol, biofilms typically grow to 10^9 CFU/PEEK membrane. […] A solution of 10% BHI was then flowed through the reactor at a rate of 6.94 mL/min for an additional 24 hours. PEEK membranes were then removed and placed into 2 mL of CAMHB that contained a desired concentration of polyamine compound or antibiotic. The EBEC was defined as the concentration of antimicrobial required to reduce a biofilm from approximately 10^9 CFU/PEEK membrane to approximately 10^2 CFU/PEEK membrane in a 24-hour period.

MRSA biofilms [6] = assay: as above; format: cell-based; settings: Staphylococcus aureus, read-out: MICs (μg/mL) II: MRSA
P. aeruginosa biofilms [7] = assay: MBEC, MBEC Inoculation Tray (Innovotech), to 10^2 CFU/peg in 24 hours; format: cell-based; settings: Pseudomonas aeruginosa; Table 3A c5; group head missing, probably MBEC; read-out: MICs (μg/mL): P. aeruginosa (second P. aeruginosa)
Description: as §1
as §2, with “In this instance, the MBEC was defined as the concentration of antimicrobial required to reduce 10^5 or 10^6 CFU/peg to 10^2 CFU/peg in a 24 hour period.” left out

MRSA biofilm = assay: MBEC assay (Calgary Biofilm Device), eradication of 100% of detectable biofilm (Example 2); format: cell-based, Staphylococcus aureus; settings: eradicate 100% of detectable biofilm
Method: In addition to determining the MIC, the minimum biofilm eradication concentration (MBEC) of PBC-51 was also determined. The MBEC was determined using the MBEC assay, formerly known as the Calgary Biofilm Device, developed by Innovotech. In this instance, the MBEC was defined as the amount of antimicrobial required to eradicate 100% of detectable biofilm after being grown in the MBEC device. To grow the biofilms within this device, 150 μL of solution containing a concentration of 10^5 cells/mL were inoculated into each well of a 96-well plate. A lid containing 96 pegs was placed onto the plate and incubated for 24 hours at 37° C. while being shaken at 110 rpm. Biofilms developed on the surface of the polystyrene pegs within the 96-well plate. After 24 hours, each peg contained between 10^5 and 10^6 cells in well-established biofilms. The lid with pegs was transferred to a 96-well plate that contained 200 μL of varying concentrations of the compound and was incubated at 37° C. for an additional 24 hours. The plate was then sonicated, and the biofilms quantified using a 10-fold dilution series to determine the MBEC.

[8] = tested on: various bacterial cell cultures; assay: Antimicrobial activity of polyamines in hydrogel on agar lawns; format: cell-based; settings: 0.5% CZ compound in 0.5% sodium hyaluronate gel, 500 uL on TSA lawn, 37 C for 24 hours
Method: A 0.5 McFarland standard of each bacteria was made, then individual lawns of bacteria spread onto the surface of tryptic soy agar (TSA). 500 uL of the suspended gel were placed on the center of each lawn. Plates were incubated at 37 C for 24 hours, then imaged. Images of the resulting gels are shown in FIGS. 30A to 30I show the effects of the polyamines CZ-86, CZ-100, and CZ-110 on various bacterial cell cultures.
The hydrogel that was used for those images is a LifeCore gel with 1% sodium hyaluronate (1% Sodium Hyaluronate Solution Part #82). The CZ compound was suspended in water at 1% (w/w) concentration and combined with the LifeCore gel 1:1 for a final product that contained 0.5% sodium hyaluronate and 0.5% CZ compound.

[9] = Acinetobacter baumannii, read-out: MICs (μg/mL) II: A. baumannii

Molecule: NCCCNCCCNCc1cc(CNCCCNCCCN)cc(CNCCCNCCCN)c1 [CZ-52, N^1,N^1′,N^1″-(benzene-1,3,5-triyltris(methylene))tris(N^3-(3-aminopropyl)propane-1,3-diamine), hydrochloride salt]
- MBEC μg/mL (μM) MRSA (MRSA biofilms [1]; Table 4): 20 µg/mL
- MBEC μg/mL (μM) MRSA (MRSA biofilms [1]; Table 4, value in parentheses): (40) μM

Molecule: Polymyxin B sulfate [reference compound]
- MICs (μg/mL) II: A. baumannii (A. baumannii biofilms [2]): 1,000 μg/mL
- MICs (μg/mL) II: A. baumannii (A. baumannii biofilms [3]): 50 µg/mL

Molecule: NCCCNCCCNCc1ccccc1 [CZ-7, benzylnorspermidine]
- MIC (MRSA biofilms [4]; Table 3A c4, group head missing, probably MBEC): > 500 µg/mL
- dispersal of a biofilm of MRSA (biofilm of MRSA): significant dispersal
- MIC (P. aeruginosa biofilms [5]): > 5000 µg/mL
- MIC (A. baumannii biofilms [2]; [9]): > 5000 µg/mL
- MBEC μg/mL (μM) MRSA (MRSA biofilms [1]; Table 4): >500 µg/mL
- MBEC μg/mL (μM) MRSA (MRSA biofilms [1]; Table 4, value in parentheses): (>2,259) μM
- MIC (MRSA biofilms [6]; Table 3B c2, group head missing): > 5000 µg/mL
- MIC (P. aeruginosa biofilms [7]): > 5000 µg/mL
- MIC (A. baumannii biofilms [3]; [9]): > 500 µg/mL

Molecule: CN[C@H](CC(C)C)C(=O)N[C@H]1C(=O)N[C@@H](CC(N)=O)C(=O)N[C@H]2C(=O)N[C@H]3C(=O)N[C@H](C(=O)N[C@H](C(=O)O)c4cc(O)cc(O)c4-c4cc3ccc4O)[C@H](O)c3ccc(c(Cl)c3)Oc3cc2cc(c3O[C@@H]2O[C@H](CO)[C@@H](O)[C@H](O)[C@H]2O[C@H]2C[C@](C)(N)[C@H](O)[C@H](C)O2)Oc2ccc(cc2Cl)[C@H]1O [vancomycin, reference compound]
- MIC (MRSA biofilms [4]): > 500 µg/mL
- MBEC μg/mL (μM) MRSA (MRSA biofilms [1]; Table 4): >500 µg/mL
- MBEC μg/mL (μM) MRSA (MRSA biofilms [1]; Table 4, value in parentheses): (>345) μM
- MBEC (μg/mL/μM) (MRSA biofilm): > 500 μg/mL and > 336.50 μM
- MIC (MRSA biofilms [6]): > 25000 µg/mL

Molecule: CC(C)CNCCCNCCCNCc1cc(CNCCCNCCCNCC(C)C)cc(-c2ccccc2)c1 [CZ-86, N^1,N^1′-([1,1′-biphenyl]-3,5-diylbis(methylene))bis(N^3-(3-(isobutylamino)propyl)propane-1,3-diamine), hydrochloride salt]
- zones of inhibition in bacterial lawns [8]: created zones of inhibition

Molecule: NCCCNCCCNCc1cccc(CNCCCNCCCN)c1 [CZ-25, N^1,N^1′-(1,3-phenylenebis(methylene))bis(N3-(3-ammoniopropyl)propane-1,3-diaminium) chloride]
- MBEC μg/mL (μM) MRSA (MRSA biofilms [1]; Table 4): 25 µg/mL
- MBEC μg/mL (μM) MRSA (MRSA biofilms [1]; Table 4, value in parentheses): (69) μM

Molecule: NCCCNCCCNCc1cc(CNCCCNCCCN)cc(-c2ccccc2)c1 [CZ-58, N^1,N^1′-([1,1′-biphenyl]-3,5-diylbis(methylene))bis(N^3-(3-ammoniopropyl)propane-1,3-diaminium) chloride]
- MBEC μg/mL (μM) MRSA (MRSA biofilms [1]; Table 4): 30 µg/mL
- MBEC μg/mL (μM) MRSA (MRSA biofilms [1]; Table 4, value in parentheses): (68) μM
